Source: US20250101028A1, “HETEROCYCLIC COMPOUNDS, COMPOSITIONS THEREOF, AND METHODS OF TREATMENT THEREWITH” (BeiGene, Ltd., priority 2022, published 2025)

Target: T1, GST-tagged GDP-loaded KRAS G12V (amino acids 1-169) (Homo sapiens, UniProt P01116, G12V)
T1 construct: GST-tagged GDP-loaded KRAS G12V (amino acids 1-169); made in house; host or cells: E. coli
Experiment: KRAS G12V probe displacement assay (TR-FRET)
Type: binding
Conditions: displacement of biotinylated probe 2 from GDP-loaded KRAS G12V
Procedure: KRAS WT and KRAS G12V Probe Displacement Assay
This assay was used to identify compounds which bind to GDP-loaded KRAS protein and are able to displace a biotinylated probe occupying the KRAS binding site. GST-tagged GDP-loaded WT KRAS (amino acids 1-169) and GST-tagged GDP-loaded KRAS G12V (amino acids 1-169) were expressed in E. coli and purified in house. All protein and reaction solutions were prepared in assay buffer containing 50 mM HEPES pH7.5, 50 mM NaCl, 1 mM MgCl2, 1 mM TCEP, 0.01% BSA, and 0.008% Brij-35. Purified WT KRAS (3 nM final concentration) or KRAS G12V protein (2 nM final concentration) was incubated with a 3-fold serially diluted compound in the assay plate (384 well microplate, black, Corning). Plates are incubated at 24° C. for 1 hr. Following the incubation, biotinylated probe 1 (60 nM final assay concentration) for WT KRAS and biotinylated probe 2 (2.5 nM final assay concentration) for KRAS G12V was added to the assay plate, respectively. After 1 hr incubation at 24° C., Mab Anti-GST-Tb cryptate (Cisbio) and Streptavidin-XL665 (Cisbio) were added and further incubated at 24° C. for another 1 hr. The TR-FRET signals (ex337 nm, em665 nm/620 nm) were read on BMG PHERAstar FSX instrument. The inhibition percentage of KRAS protein binding with biotinylated probe in presence of increasing concentrations of compounds was calculated based on the ratio of fluorescence at 665 nm to that at 620 nm. The IC50 value of each compound was calculated from fitting the data to the four-parameter logistic model by Dotmatics.

T1 sequence (P01116 1-169 isoform P01116-2 G12V): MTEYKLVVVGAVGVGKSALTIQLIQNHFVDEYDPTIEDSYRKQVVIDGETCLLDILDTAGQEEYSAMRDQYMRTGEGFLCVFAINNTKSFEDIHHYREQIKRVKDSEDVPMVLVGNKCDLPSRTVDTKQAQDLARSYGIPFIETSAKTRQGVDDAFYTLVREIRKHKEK

SMILES | IC50 [nM]
N#C[C@@H]1CCN(c2nc(OC[C@@]34CCCN3C[C@H](F)C4)nc3c(F)c(-c4ccc(F)c5sc(N)nc45)c(C(F)(F)F)cc23)C[C@H]1O (mixture of isomers) [Example 75, 1-(7-(2-amino-7-fluorobenzo[d]thiazol-4-yl)-8-fluoro-2-(((2R,7aS)-2-fluorotetrahydro-1H-pyrrolizin-7a(5H)-yl)methoxy)-6-(trifluoromethyl)quinazolin-4-yl)-trans-3-hydroxypiperidine-4-carbonitrile] | 3.8
Cc1cc(N)nc(-c2c(Cl)cc3c(N4CC[C@@H](C#N)C[C@@H]4C)nc(OC[C@@]45CCCN4C[C@H](F)C5)nc3c2F)c1C(F)(F)F (mixture of isomers) [Example 104, 1-(7-(6-amino-4-methyl-3-(trifluoromethyl)pyridin-2-yl)-6-chloro-8-fluoro-2-(((2R,7aS)-2-fluorotetrahydro-1H-pyrrolizin-7a(5H)-yl)methoxy)quinazolin-4-yl)-trans-2-methylpiperidine-4-carbonitrile] | 7
Nc1nc2c(-c3c(C(F)(F)F)cc4c(NC5CC5c5ccccc5)nc(OC[C@@]56CCCN5C[C@H](F)C6)nc4c3F)ccc(F)c2s1 (relative stereo) [Example 5, 7-fluoro-4-(8-fluoro-2-(((2R,7aS)-2-fluorotetrahydro-1H-pyrrolizin-7a(5H)-yl)methoxy)-4-(((trans)-2-phenylcyclopropyl)amino)-6-(trifluoromethyl)quinazolin-7-yl)benzo[d]thiazol-2-amine] | 45
CC1CC(C#N)CCN1c1nc(OC[C@@]23CCCN2C[C@H](F)C3)nc2c(F)c(-c3ccc(F)c4sc(N)nc34)c(C(F)(F)F)cc12 (relative stereo) [Example 74, 1-(7-(2-amino-7-fluorobenzo[d]thiazol-4-yl)-8-fluoro-2-(((2R,7aS)-2-fluorotetrahydro-1H-pyrrolizin-7a(5H)-yl)methoxy)-6-(trifluoromethyl)quinazolin-4-yl)-trans-2-methylpiperidine-4-carbonitrile] | 1.9
Nc1nc2c(-c3c(C(F)(F)F)cc4c(NC5CCC(F)C5)nc(OC[C@@]56CCCN5C[C@H](F)C6)nc4c3F)ccc(F)c2s1 (stereo in doubt) [Example 25, 7-fluoro-4-(8-fluoro-4-(((1S,3R)-3-fluorocyclopentyl)amino)-2-(((2R,7aS)-2-fluorotetrahydro-1H-pyrrolizin-7a(5H)-yl)methoxy)-6-(trifluoromethyl)quinazolin-7-yl) benzo[d]thiazol-2-amine] | 38
Nc1nc2c(-c3c(C(F)(F)F)cc4c(N[C@H]5C[C@H]5F)nc(OC[C@@]56CCCN5C[C@H](F)C6)nc4c3F)ccc(F)c2s1 [Example 2, 7-fluoro-4-(8-fluoro-4-(((1S,2R)-2-fluorocyclopropyl)amino)-2-(((2R,7aS)-2-fluorotetrahydro-1H-pyrrolizin-7a(5H)-yl)methoxy)-6-(trifluoromethyl)quinazolin-7-yl)benzo[d]thiazol-2-amine] | 16
CC1CC1Nc1nc(OC[C@@]23CCCN2C[C@H](F)C3)nc2c(F)c(-c3ccc(F)c4sc(N)nc34)c(C(F)(F)F)cc12 (stereo partly drawn) [Example 3, 7-fluoro-4-(8-fluoro-2-(((2R,7aS)-2-fluorotetrahydro-1H-pyrrolizin-7a(5H)-yl)methoxy)-4-((2-methylcyclopropyl)amino)-6-(trifluoromethyl)quinazolin-7-yl)benzo[d]thiazol-2-amine] | 6.2
CCC1CC1Nc1nc(OC[C@@]23CCCN2C[C@H](F)C3)nc2c(F)c(-c3ccc(F)c4sc(N)nc34)c(C(F)(F)F)cc12 (stereo partly shown) [Example 4] | 29
COC1CC1Nc1nc(OC[C@@]23CCCN2C[C@H](F)C3)nc2c(F)c(-c3ccc(F)c4sc(N)nc34)c(C(F)(F)F)cc12 (stereo partly drawn) [Example 6, 7-fluoro-4-(8-fluoro-2-(((2R,7aS)-2-fluorotetrahydro-1H-pyrrolizin-7a(5H)-yl)methoxy)-4-((2-methoxycyclopropyl)amino)-6-(trifluoromethyl)quinazolin-7-yl)benzo[d]thiazol-2-amine] | 54
Nc1nc2c(-c3c(C(F)(F)F)cc4c(NC5C6CCCC65)nc(OC[C@@]56CCCN5C[C@H](F)C6)nc4c3F)ccc(F)c2s1 (stereo partly drawn) [Example 8, 4-(4-(bicyclo[3.1.0]hexan-6-ylamino)-8-fluoro-2-(((2R,7aS)-2-fluorotetrahydro-1H-pyrrolizin-7a(5H)-yl)methoxy)-6-(trifluoromethyl)quinazolin-7-yl)-7-fluorobenzo[d]thiazol-2-amine] | 43
CC(=O)N1C[C@@H]2[C@H](C1)[C@H]2Nc1nc(OC[C@@]23CCCN2C[C@H](F)C3)nc2c(F)c(-c3ccc(F)c4sc(N)nc34)c(C(F)(F)F)cc12 [Example 9, 1-((1R,5S,6s)-6-((7-(2-amino-7-fluorobenzo[d]thiazol-4-yl)-8-fluoro-2-(((2R,7aS)-2-fluorotetrahydro-1H-pyrrolizin-7a(5H)-yl)methoxy)-6-(trifluoromethyl)quinazolin-4-yl)amino)-3-azabicyclo[3.1.0]hexan-3-yl)ethan-1-one] | 2.5
Nc1nc2c(-c3c(C(F)(F)F)cc4c(NC5CCC5)nc(OC[C@@]56CCCN5C[C@H](F)C6)nc4c3F)ccc(F)c2s1 [Example 10, 4-(4-(cyclobutylamino)-8-fluoro-2-(((2R,7aS)-2-fluorotetrahydro-1H-pyrrolizin-7a(5H)-yl)methoxy)-6-(trifluoromethyl)quinazolin-7-yl)-7-fluorobenzo[d]thiazol-2-amine] | 19
Nc1nc2c(-c3c(C(F)(F)F)cc4c(N[C@H]5C[C@@H](O)C5)nc(OC[C@@]56CCCN5C[C@H](F)C6)nc4c3F)ccc(F)c2s1 [Example 11, cis-3-((7-(2-amino-7-fluorobenzo[d]thiazol-4-yl)-8-fluoro-2-(((2R,7aS)-2-fluorotetrahydro-1H-pyrrolizin-7a(5H)-yl)methoxy)-6-(trifluoromethyl)quinazolin-4-yl)amino)cyclobutan-1-ol] | 4.4
Nc1nc2c(-c3c(C(F)(F)F)cc4c(N[C@H]5C[C@H](O)C5)nc(OC[C@@]56CCCN5C[C@H](F)C6)nc4c3F)ccc(F)c2s1 [Example 12, (trans)-3-((7-(2-amino-7-fluorobenzo[d]thiazol-4-yl)-8-fluoro-2(((2R,7aS)-2-fluorotetrahydro-1H-pyrrolizin-7a(5H)-yl)methoxy)-6-(trifluoromethyl)quinazolin-4-yl)amino)cyclobutan-1-ol] | 3.7
CO[C@H]1C[C@@H](Nc2nc(OC[C@@]34CCCN3C[C@H](F)C4)nc3c(F)c(-c4ccc(F)c5sc(N)nc45)c(C(F)(F)F)cc23)C1 [Example 13, 7-fluoro-4-(8-fluoro-2-(((2R,7aS)-2-fluorotetrahydro-1H-pyrrolizin-7a(5H)-yl)methoxy)-4-(((cis)-3-methoxycyclobutyl)amino)-6-(trifluoromethyl)quinazolin-7-yl)benzo[d]thiazol-2-amine] | 20
CO[C@H]1C[C@H](Nc2nc(OC[C@@]34CCCN3C[C@H](F)C4)nc3c(F)c(-c4ccc(F)c5sc(N)nc45)c(C(F)(F)F)cc23)C1 [Example 14, 7-fluoro-4-(8-fluoro-2-(((2R,7aS)-2-fluorotetrahydro-1H-pyrrolizin-7a(5H)-yl)methoxy)-4-(((trans)-3-methoxycyclobutyl)amino)-6-(trifluoromethyl)quinazolin-7-yl)benzo[d]thiazol-2-amine] | 13
Nc1nc2c(-c3c(C(F)(F)F)cc4c(N[C@H]5C[C@@H](F)C5)nc(OC[C@@]56CCCN5C[C@H](F)C6)nc4c3F)ccc(F)c2s1 [Example 15, 7-fluoro-4-(8-fluoro-4-(((cis)-3-fluorocyclobutyl)amino)-2-(((2R,7aS)-2-fluorotetrahydro-1H-pyrrolizin-7a(5H)-yl)methoxy)-6-(trifluoromethyl)quinazolin-7-yl)benzo[d]thiazol-2-amine] | 17
Nc1nc2c(-c3c(C(F)(F)F)cc4c(N[C@H]5C[C@H](F)C5)nc(OC[C@@]56CCCN5C[C@H](F)C6)nc4c3F)ccc(F)c2s1 [Example 16, 7-fluoro-4-(8-fluoro-4-(((trans)-3-fluorocyclobutyl)amino)-2-(((2R,7aS)-2-fluorotetrahydro-1H-pyrrolizin-7a(5H)-yl)methoxy)-6-(trifluoromethyl)quinazolin-7-yl)benzo[d]thiazol-2-amine] | 14
Nc1nc2c(-c3c(C(F)(F)F)cc4c(NC5CC(F)(F)C5)nc(OC[C@@]56CCCN5C[C@H](F)C6)nc4c3F)ccc(F)c2s1 [Example 17, 4-(4-((3,3-difluorocyclobutyl)amino)-8-fluoro-2-(((2R,7aS)-2-fluorotetrahydro-1H-pyrrolizin-7a(5H)-yl)methoxy)-6-(trifluoromethyl)quinazolin-7-yl)-7-fluorobenzo[d]thiazol-2-amine] | 43
